Key:
[1] = test system: CRC cells; experiment: KHK knockdown in CRC cells transplanted into mouse cecum, liver metastasis; format: in vivo; details: IVIS luciferase images, quantification of liver metastasis
Procedure: FIG. 42A-42B illustrates KHK knockdown suppresses liver metastasis. FIG. 42A is a Western blot showing KHK knockdown efficiency. FIG. 42B are representative IVIS luciferase in vivo images, bright field and fluorescent images of livers, and quantification of liver metastasis. Error bars denote SEM of 5 mice per group. p-values were calculated based on one-way ANOVA. ***, p<0.001.
To determine if silencing ketohexokinase (KHK) can suppress liver metastases, KHK was knocked down using shRNA nucleic acid sequence SEQ ID NO:4 (FIG. 42A) in CRC cells and the cells were transplanted into the mouse cecum using the methods described in Example 6 with respect to ALDOB knockdown.

[2] = test system: LV-HCT116 cells; experiment: intravenous injection of liver-derived HCT116 (LV-HCT116), tumors in the liver; format: in vivo, NOD/SCID mice; details: 5-Fluorouracil 100 mg/kg, Oxaliplatin 6 mg/kg, intraperitoneal twice a week; compared with ALDOB knockdown or fructose-restricted diet
Text: FIG. 41A is representative IVIS luciferase in vivo images of mice with intravenous injection of liver-derived HCT116 cells with or without ALDOB knockdown. FIG. 41B are bright field and fluorescent (mCherry) images of livers of mice with intravenous injection of liver-derived HCT116 cells with or without ALDOB knockdown. FIG. 41C is a graph showing quantification of liver metastasis of mice with intravenous injection of liver-derived HCT116 cells with or without ALDOB knockdown, and show knockdown of ALDOB suppressed CRC liver lesions. FIG. 41D are representative IVIS luciferase in vivo images of mice with intravenous injection of liver-derived HCT116 with fructose diet. FIG. 41E are bright field and fluorescent (mCherry) images of livers of mice with intravenous injection of liver-derived HCT116 with fructose diet. FIG. 41F is a graph of quantification of liver metastasis of mice with intravenous injection of liver-derived HCT116 with fructose diet that show mice fed with fructose-restricted diet suppressed liver lesions. […] FIG. 41I is a graph showing quantification of liver lesions. […] Error bars denote SEM of 3 mice per group. **, p<0.01; ***, p<0.001. p-value was calculated based on one-way ANOVA. […]

[3] = test system: CRC57 cells; experiment: cecum injection model, CRC liver metastasis, CRC57 cells with ALDOB knockdown; format: in vivo, NOD/SCID mice; details: cecum-injected CRC57 cells with ALDOB knockdown; control vectors 5 out of 5 mice
Procedure: (§1) Tumor-bearing mice were treated with 5-Fluorouracil (Sigma, St. Louis, Mo.) at a dose of 100 mg/kg, Oxaliplatin (Sigma, St. Louis, Mo.) at a dose of 6 mg/kg, 2-deoxyglucose (Sigma, St. Louis, Mo.) at a dose of 500 mg/kg or normal saline as vehicle control through intraperitoneal route twice a week. 2×10^6 cells carrying a luciferase/mCherry or luciferase/GFP vector were injected into the mice for cecum injection model and intrahepatic injection model. 5×10^5 cells were injected for intravenous injection. Luciferase signal was tracked in vivo using the IVIS luciferase imaging system 200 (Xenogen) for tumor development. Liver metastases were evaluated based on mCherry signals by an OV100 microscope (Olympus) after scarifying the mice.
(§2) To assess the contribution of ALDOB to fructose metabolism, ALDOB was knocked down in CRC cells using two shRNAs and validated the knockdown efficiencies by Western blot (FIG. 23). ALDOB lentiviral shRNA constructs were purchased from Sigma Mission shRNA dataset. The lentiviral vectors were co-transfected with helper plasmids into 293T cells. The lentiviral vectors were transfected into 293T cells. The viral supernatant was collected 48 hours after transfection and was used to infect CRC cells. […]

[4] = test system: HCT116 cells; experiment: cecum injection model, CRC liver metastasis, HCT116 cells with ALDOB knockdown; format: in vivo, NOD/SCID mice; details: cecum-injected HCT116 cells with ALDOB knockdown; control vectors 5 out of 5 mice
Procedure: as §1, §2

[5] = test system: CRC119 cells; experiment: cecum injection model, CRC liver metastasis, CRC119 cells with ALDOB knockdown; format: in vivo, NOD/SCID mice; details: cecum-injected CRC119 cells with ALDOB knockdown; control vectors 5 out of 5 mice
Procedure: as §1, §2

| Compound | metastatic CRC growth in the liver [1] | benefit in terms of tumor suppression or survival [2] | mice that developed detectable liver metastases [3] | mice that developed detectable liver metastases [4] | mice that developed detectable liver metastases [5] |
| --- | --- | --- | --- | --- | --- |
| SEQ ID NO:4: shRNA against human fructokinase (KHK) (CCGGCCTAAGGAGGACTCGGAGATACTCGAGTATCTCCGAGTCCTCCTTAGGTTTTTG) | significantly suppressed |  |  |  |  |
| O=C1[O][Pt]2([NH][C@@H]3CCCC[C@H]3[NH]2)[O]C1=O [Oxaliplatin] |  | less benefit |  |  |  |
| O=c1[nH]cc(F)c(=O)[nH]1 [5-Fluorouracil] |  | less benefit |  |  |  |
| shRNA2: shRNA against human ALDOB, Sigma Mission lentiviral construct (CCGGGTGGGAATCAAGTTAGACCAACTCGAGTTGGTCTAACTTGATTCCCACTTTTTG) |  |  | 2 out of 5 mice | 2 out of 5 mice | 1 out of 5 mice |
| shRNA1: shRNA against human ALDOB, Sigma Mission lentiviral construct (CCGGCTCAGAAATTGCCCAGAGCATCTCGAGATGCTCTGGGCAATTTCTGAGTTTTTG) |  |  | 2 out of 5 mice | 2 out of 5 mice | 2 out of 5 mice |

Reference: patent US20190231761A1, “COMPOSITIONS AND METHODS FOR TARGETING FRUCTOSE ENZYMES AND TRANSPORTERS FOR THE TREATMENT OF CANCER” (Duke University, priority 2018, published 2019)
